The values that follow come from patent US20020002198A1, “Chemical synergy to elevate growth hormone release in vertebrates” (priority 2000, published 2002).

The structures appear in SMILES notation.

The conditions of data set [1]: in vivo; cited from earlier work.
For data set [2], the system named is GH release. The experiment in a line: Serum GH at 1.5 hours post night time sleep after oral ingestion, antibody capture technique, healthy volunteer. It counts as in vivo, human. The conditions noted are these: for Augmentation of GH release at 1.5 hours post sleep (in words): oral at night sleep. As to the method: Measurements of GH release occurring at 1.5 hours post sleep were performed on serum samples from a healthy volunteer. Controls and serum analysis for GH were measured by standard commercially avialable antibody capture technique. Experiments and measurement of results occurred between June and October 2000. Each single night experimental serum collection was separated from any other experiments by 1 week. All determinations represent averaged value of triple determinations. […] Measurements were each performed on serum collected 1.5 hours post night time sleep. Choice of 1.5 hours post sleep represents one complete sleep cycle with slow wave sleep during which GH is released. Oral ingestions of stated substances occurred just before night sleep. The normal range of serum GH at 1.5 hours post sleep is in the 1-10 nanograms per milliliter (ng/ml) range. The variance in measurement precision is given by the second value. All experiments were preceded by a period of 3-4 hours since the last meal.

In data set [3] the test system is mitochondrial maximal energy production. Conditions: pharmacological levels, intravenous, aged animals, within an hour or two; cited from earlier work.
The conditions of data set [4]: cited from earlier work.
For data set [5] the following is noted: oral ingestion, humans; cited from earlier work.
In data set [6] the test system is GH release. Conditions: cited from earlier work.

As to `NCCCNCCCCNCCCN` [spermine], the “Toxicity when administered systematically (in words)” value (“Toxicity … (in words)” for short) in data set [1] was “significant toxicity”.
On to `NCCC[C@H](N)C(=O)O` [l-ornithine], for which the “Augmentation of GH release at 1.5 hours post sleep (in words)” value in the data set on GH release [2] is given as “absence of effect”.
Regarding `CC(=O)O[C@H](CC(=O)[O-])C[N+](C)(C)C` [Acetyl-l-carnitine, acetyl-l-carnitine], in the data set with GH release [2] (500 mg of the single substance alone, oral at sleep, 1.5 hour post sleep serum collection, 3-4 hours after last meal, control […] ± 0.2), the “Measured GH” value was 0.55 ± 0.1 ng/mL. The “Augmentation of GH release at 1.5 hours post sleep (in words)” value in the data set with GH release [2] is reported as “absence of effect”. Moreover, the “Restoration of mitochondrial maximal energy production (in words)” value in data set [3] was “restore mitochondrial maximal energy production to youthful levels”. The “Safety in long human testing (in words)” value in data set [4] (2.5-7 grams per day, Alzheimer's disease treatment) is listed as “without reported negative consequences”. The “Toxicity sets in at” value in data set [4] (comparable to normal nutritional amino acids) is “about 1 % of body weight”. Also, the “Maximal immediately absorbed dose” value in data set [5] is reported as 500 to 2000 milligrams.
`NCCCCN` [putrescine]: the “Toxicity … (in words)” value in data set [1] is reported as “considerably less toxic”.
With `N=C(N)NCCC[C@H](N)C(=O)O` [l-arginine], in the data set on GH release [6], the “Lowest oral dose that augmented normal night time GH release” value is “greater than 3 grams”. Besides, in the data set on GH release [6] (oral, alone, doses of up to 6 gram at night), the “Elevation of growth hormone secretion (in words)” value was “does not elevate growth hormone secretion”.
As to `NCCCCNCCCN` [spermidine], the “Toxicity … (in words)” value in data set [1] is on record as “considerably less toxic”.
